Reference: PubChem BioAssay (NCI)
Where “and” joins values, the source holds several entries; their conditions need not be identical. Equal entries are not always repeated.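 Cells were grown in 96-well plates and exposed to each compound for 48 hours at five concentrations; endpoints were interpolated linearly between bracketing concentrations, or set to the highest concentration if not reached. GI50 marks 50% less growth. TGI marks complete inhibition of growth.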

Experiments:
Test in all cases: NCI-60 cell line screen, 48 h
OVCAR-5 ovarian = system: OVCAR-5 ovarian
COLO 205 colon = system: COLO 205 colon
M14 melanoma = system: M14 melanoma
NCI-H226 lung = system: NCI-H226 lung
HS 578T breast = system: HS 578T breast
SW-620 colon = system: SW-620 colon
MDA-MB-435 = system: MDA-MB-435
OVCAR-3 ovarian = system: OVCAR-3 ovarian
LOX IMVI melanoma = system: LOX IMVI melanoma
SK-MEL-5 melanoma = system: SK-MEL-5 melanoma
NCI-H522 lung = system: NCI-H522 lung

SMILES: Cc1ccc([N+](=O)[O-])c2c(NCC(O)CO)ccnc12 (stereo not drawn)
- TGI (OVCAR-5 ovarian): > 100 µM
- TGI (COLO 205 colon): 75.1 µM
- TGI (M14 melanoma): > 100 µM
- TGI (NCI-H226 lung): > 100 µM
- TGI (HS 578T breast): > 100 µM
- TGI (SW-620 colon): > 100 µM
- TGI (MDA-MB-435): > 100 µM
- TGI (OVCAR-3 ovarian): > 100 µM
- TGI (LOX IMVI melanoma): > 100 µM
- TGI (SK-MEL-5 melanoma): 42.3 µM

SMILES: COc1ccc(C2=NN=C3C(c4ccccc4)=Nc4ccccc4N3C2)cc1
- TGI (OVCAR-5 ovarian): > 100 µM
- TGI (COLO 205 colon): 70.7 µM
- TGI (M14 melanoma): 83.8 µM
- TGI (NCI-H226 lung): > 100 µM
- TGI (SW-620 colon): > 100 µM
- TGI (MDA-MB-435): > 100 µM
- TGI (OVCAR-3 ovarian): 6.52 µM
- TGI (LOX IMVI melanoma): > 100 µM
- TGI (SK-MEL-5 melanoma): > 100 µM

SMILES: CCN(CC)CC(=N)N(CC)c1ccccc1
- TGI (OVCAR-5 ovarian): > 100 µM
- TGI (COLO 205 colon): > 100 µM
- TGI (NCI-H522 lung): > 100 µM
- TGI (M14 melanoma): > 100 µM
- TGI (NCI-H226 lung): > 100 µM
- TGI (SW-620 colon): > 100 µM
- TGI (OVCAR-3 ovarian): > 100 µM
- TGI (LOX IMVI melanoma): > 100 µM
- TGI (SK-MEL-5 melanoma): > 100 µM

SMILES: COc1ccc(N2C(=O)C3c4[nH]c5ccccc5c4C4CCCCC4C3C2=O)cc1 (stereo not drawn)
- TGI (OVCAR-5 ovarian): > 100 µM
- TGI (COLO 205 colon): > 100 µM
- TGI (NCI-H522 lung): > 100 µM
- TGI (M14 melanoma): > 100 µM
- TGI (NCI-H226 lung): > 100 µM
- TGI (SW-620 colon): > 100 µM
- TGI (OVCAR-3 ovarian): > 100 µM
- TGI (LOX IMVI melanoma): > 100 µM
- TGI (SK-MEL-5 melanoma): 66 µM

SMILES: CC(C)(C)OC(=O)NCC(=O)N1CCN(C(=O)CNC(=O)OC(C)(C)C)CC1
- TGI (OVCAR-5 ovarian): > 100 µM
- TGI (COLO 205 colon): > 100 µM
- TGI (NCI-H522 lung): 7.12 µM
- TGI (M14 melanoma): > 100 µM
- TGI (NCI-H226 lung): > 100 µM
- TGI (SW-620 colon): > 100 µM
- TGI (MDA-MB-435): > 100 µM
- TGI (OVCAR-3 ovarian): > 100 µM
- TGI (LOX IMVI melanoma): > 100 µM
- TGI (SK-MEL-5 melanoma): > 100 µM

SMILES: NC1CC=C(COC(=O)C(O)(c2ccccc2)C2CC2)CC1 (stereo not drawn)
- TGI (OVCAR-5 ovarian): > 100 µM
- TGI (COLO 205 colon): > 100 µM
- TGI (NCI-H522 lung): > 100 µM
- TGI (M14 melanoma): > 100 µM
- TGI (NCI-H226 lung): > 100 µM
- TGI (SW-620 colon): > 100 µM
- TGI (OVCAR-3 ovarian): > 100 µM
- TGI (LOX IMVI melanoma): > 100 µM
- TGI (SK-MEL-5 melanoma): > 100 µM

SMILES: O=C1CSc2cc([N+](=O)[O-])ccc2N1
- TGI (OVCAR-5 ovarian): > 100 µM
- TGI (COLO 205 colon): > 100 µM
- TGI (NCI-H522 lung): > 100 µM
- TGI (M14 melanoma): > 100 µM
- TGI (NCI-H226 lung): > 100 µM
- TGI (SW-620 colon): > 100 µM
- TGI (OVCAR-3 ovarian): > 100 µM
- TGI (LOX IMVI melanoma): > 100 µM
- TGI (SK-MEL-5 melanoma): > 100 µM

SMILES: O=C1c2ccccc2C(=O)c2[nH]c(Cc3ccc(F)cc3)nc21
- TGI (COLO 205 colon): 41 µM
- TGI (NCI-H522 lung): 34.3 µM
- TGI (M14 melanoma): 30.2 µM
- TGI (NCI-H226 lung): 45.9 µM
- TGI (SW-620 colon): 38.3 µM
- TGI (OVCAR-3 ovarian): 38.2 µM

SMILES: C/C=C(/C)C(=O)O[C@H]1[C@H](O)CC(c2ccc3c(c2O)C(O)=C2C(=O)C4(OC)C(O)=C(C(N)=O)C(=O)[C@H](CC(=O)c5ccccc5O)C4CC2[C@@]3(C)OC)O[C@@H]1C (stereo partly drawn)
- TGI (OVCAR-5 ovarian): 2.02 µM and 0.916 µM
- TGI (COLO 205 colon): 0.0288 µM
- TGI (NCI-H522 lung): 1.21 µM and 1.83 µM
- TGI (M14 melanoma): 2.13 µM and 1.34 µM
- TGI (NCI-H226 lung): 2.33 µM
- TGI (SW-620 colon): 1.13 µM
- TGI (MDA-MB-435): 1.64 µM
- TGI (OVCAR-3 ovarian): 1.9 µM
- TGI (LOX IMVI melanoma): 0.132 µM
- TGI (SK-MEL-5 melanoma): 0.0149 µM and 0.0199 µM

SMILES: Cn1c(=O)c2/c(n(C)c1=O)=N\C=c1\c(=O)n(C)c(=O)n(C)\c1=N\C=2
- TGI (OVCAR-5 ovarian): > 100 µM
- TGI (COLO 205 colon): > 100 µM
- TGI (NCI-H522 lung): > 100 µM
- TGI (M14 melanoma): > 100 µM
- TGI (SW-620 colon): > 100 µM
- TGI (OVCAR-3 ovarian): > 100 µM
- TGI (SK-MEL-5 melanoma): > 100 µM

SMILES: O=C(/C=C\c1cccc2ccccc12)c1cccc2ccccc12
- GI50 (NCI-H522 lung): 4.46 µM
- TGI (NCI-H522 lung): 16.1 µM
- TGI (M14 melanoma): 26 µM
- GI50 (NCI-H226 lung): 12.2 µM
- TGI (NCI-H226 lung): 25 µM
- GI50 (SW-620 colon): 2.7 µM
- TGI (SW-620 colon): 10.6 µM
- GI50 (OVCAR-3 ovarian): 12.5 µM
- TGI (OVCAR-3 ovarian): 25.3 µM
- GI50 (LOX IMVI melanoma): 4.42 µM
- TGI (LOX IMVI melanoma): 18 µM
- TGI (SK-MEL-5 melanoma): 27.1 µM

SMILES: CC(=O)[CH-]C(=O)c1ccccc1.CC(=O)[CH-]C(=O)c1ccccc1.CC[O-].O=C1c2ccccc2C(=O)c2c1ccc(O)c2[O-].[Ti+4]
- TGI (OVCAR-5 ovarian): > 100 µM
- TGI (COLO 205 colon): > 100 µM
- TGI (NCI-H522 lung): 60.3 µM
- TGI (M14 melanoma): > 100 µM
- TGI (NCI-H226 lung): > 100 µM
- TGI (SW-620 colon): > 100 µM
- TGI (OVCAR-3 ovarian): > 100 µM
- TGI (LOX IMVI melanoma): > 100 µM
- GI50 (SK-MEL-5 melanoma): 30.4 µM
- TGI (SK-MEL-5 melanoma): > 100 µM

SMILES: CC(=O)N/C(=C\c1ccc(Cc2nc3c([nH]2)C(=O)c2ccccc2C3=O)cc1)c1nc2c([nH]1)C(=O)c1ccccc1C2=O
- TGI (OVCAR-5 ovarian): > 100 µM
- TGI (COLO 205 colon): > 100 µM
- TGI (NCI-H522 lung): > 100 µM
- TGI (M14 melanoma): > 100 µM
- TGI (NCI-H226 lung): > 100 µM
- TGI (SW-620 colon): > 100 µM
- TGI (OVCAR-3 ovarian): > 100 µM
- TGI (LOX IMVI melanoma): > 100 µM
- TGI (SK-MEL-5 melanoma): > 100 µM

SMILES: O=S1Nc2c(Cl)cc(Cl)c(Cl)c2S1 (stereo not drawn)
- TGI (OVCAR-5 ovarian): > 100 µM
- TGI (COLO 205 colon): > 100 µM
- TGI (NCI-H522 lung): > 100 µM
- TGI (M14 melanoma): > 100 µM
- TGI (NCI-H226 lung): > 100 µM
- TGI (SW-620 colon): 21.1 µM
- TGI (OVCAR-3 ovarian): > 100 µM
- TGI (LOX IMVI melanoma): > 100 µM
- TGI (SK-MEL-5 melanoma): > 100 µM

SMILES: O=c1[nH]c(=S)c2cc3c(=S)[nH]c(=O)n(CCO)c3nc2n1CCO
- TGI (OVCAR-5 ovarian): > 100 µM
- TGI (COLO 205 colon): > 100 µM
- TGI (NCI-H522 lung): > 100 µM
- TGI (M14 melanoma): > 100 µM
- TGI (NCI-H226 lung): > 100 µM
- TGI (SW-620 colon): > 100 µM
- TGI (MDA-MB-435): > 100 µM
- TGI (OVCAR-3 ovarian): > 100 µM
- TGI (LOX IMVI melanoma): > 100 µM
- TGI (SK-MEL-5 melanoma): > 100 µM

SMILES: CN(C)CCCNCc1cccc2ccccc12
- TGI (OVCAR-5 ovarian): > 100 µM
- TGI (COLO 205 colon): > 100 µM
- TGI (M14 melanoma): > 100 µM
- TGI (NCI-H226 lung): > 100 µM
- TGI (HS 578T breast): > 100 µM
- TGI (SW-620 colon): > 100 µM
- TGI (MDA-MB-435): > 100 µM
- TGI (OVCAR-3 ovarian): > 100 µM
- TGI (LOX IMVI melanoma): > 100 µM
- TGI (SK-MEL-5 melanoma): > 100 µM
